This passage reports IC50, CC50 and AC50 results from ChEMBL document CHEMBL1201862, “PubChem BioAssay data set” (2004).

Activity calls are given as the source filed them. Bounds are passed on as bounds.

One assay has as its target T1, Leucine aminopeptidase (Plasmodium falciparum 3D7, UniProt Q8IL11).
T1 sequence (Q8IL11 whole entry): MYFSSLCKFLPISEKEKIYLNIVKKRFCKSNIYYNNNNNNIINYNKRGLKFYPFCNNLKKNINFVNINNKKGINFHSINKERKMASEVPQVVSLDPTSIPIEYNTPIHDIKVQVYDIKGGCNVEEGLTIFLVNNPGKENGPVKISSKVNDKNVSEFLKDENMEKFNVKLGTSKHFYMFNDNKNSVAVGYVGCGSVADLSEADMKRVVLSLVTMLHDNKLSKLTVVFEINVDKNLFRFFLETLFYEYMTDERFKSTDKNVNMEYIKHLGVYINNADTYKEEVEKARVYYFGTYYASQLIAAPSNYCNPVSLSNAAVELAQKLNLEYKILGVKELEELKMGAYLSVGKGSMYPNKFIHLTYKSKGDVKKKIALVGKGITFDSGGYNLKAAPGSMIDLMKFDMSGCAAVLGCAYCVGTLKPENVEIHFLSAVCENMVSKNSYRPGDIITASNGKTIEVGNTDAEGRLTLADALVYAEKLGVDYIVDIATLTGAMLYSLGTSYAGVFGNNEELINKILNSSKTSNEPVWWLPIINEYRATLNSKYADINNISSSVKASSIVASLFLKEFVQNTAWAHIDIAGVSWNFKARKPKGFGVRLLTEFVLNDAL
Description: P. falciparum M17LAP inhibitors, primary screen, biochemical, fluorogenic H-Leu-NHMec substrate, 1536-well (AID 1619). It counts as functional.

Assay [1] can be described thus: microbe, parasite or virus in culture. It counts as functional. To be noted: Mycobacterium tuberculosis.
The target of assay [2] is Induced myeloid leukemia cell differentiation protein Mcl-1 (Homo sapiens, UniProt Q07820). The class given is functional.
Assay [3] concerns the target T2, Histone-lysine N-methyltransferase NSD2 (Homo sapiens, UniProt O96028).
T2 sequence (O96028 whole entry): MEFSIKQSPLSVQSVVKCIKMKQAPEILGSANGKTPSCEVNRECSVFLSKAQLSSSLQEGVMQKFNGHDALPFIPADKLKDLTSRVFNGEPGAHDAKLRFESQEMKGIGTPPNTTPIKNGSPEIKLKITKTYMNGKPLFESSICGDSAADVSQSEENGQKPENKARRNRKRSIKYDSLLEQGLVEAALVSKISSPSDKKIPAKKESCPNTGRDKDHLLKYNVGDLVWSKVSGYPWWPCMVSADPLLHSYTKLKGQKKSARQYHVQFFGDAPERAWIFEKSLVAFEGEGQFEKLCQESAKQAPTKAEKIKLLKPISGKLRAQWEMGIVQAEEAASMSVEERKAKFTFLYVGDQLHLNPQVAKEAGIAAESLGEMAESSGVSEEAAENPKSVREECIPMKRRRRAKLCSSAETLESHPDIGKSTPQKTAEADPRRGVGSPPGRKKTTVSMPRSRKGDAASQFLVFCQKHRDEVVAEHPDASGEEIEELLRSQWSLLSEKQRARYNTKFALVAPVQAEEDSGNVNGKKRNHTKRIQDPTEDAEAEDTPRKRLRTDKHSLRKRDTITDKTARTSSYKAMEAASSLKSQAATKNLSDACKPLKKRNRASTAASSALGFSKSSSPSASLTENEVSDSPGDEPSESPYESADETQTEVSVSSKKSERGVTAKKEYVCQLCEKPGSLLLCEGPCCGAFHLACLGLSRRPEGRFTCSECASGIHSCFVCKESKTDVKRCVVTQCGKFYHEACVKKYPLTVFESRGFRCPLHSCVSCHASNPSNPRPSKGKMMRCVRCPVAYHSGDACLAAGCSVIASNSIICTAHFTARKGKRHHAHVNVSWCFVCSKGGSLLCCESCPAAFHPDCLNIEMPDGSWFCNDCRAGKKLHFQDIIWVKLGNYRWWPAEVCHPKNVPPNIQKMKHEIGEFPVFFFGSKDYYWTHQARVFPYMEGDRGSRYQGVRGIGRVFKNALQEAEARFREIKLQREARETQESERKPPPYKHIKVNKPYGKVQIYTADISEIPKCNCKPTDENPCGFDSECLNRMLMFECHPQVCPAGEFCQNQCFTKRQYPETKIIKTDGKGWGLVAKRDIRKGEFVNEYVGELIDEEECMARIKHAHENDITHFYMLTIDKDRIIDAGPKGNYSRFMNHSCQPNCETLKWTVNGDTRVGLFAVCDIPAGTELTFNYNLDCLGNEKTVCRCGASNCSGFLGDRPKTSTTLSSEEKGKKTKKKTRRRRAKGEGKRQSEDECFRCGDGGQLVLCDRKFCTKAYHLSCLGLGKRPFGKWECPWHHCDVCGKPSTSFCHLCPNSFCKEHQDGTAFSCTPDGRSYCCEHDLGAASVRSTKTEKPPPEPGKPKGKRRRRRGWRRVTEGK
It counts as biochemical.

The next assay in a line: cells. The class given is functional.
Assay [4] can be described thus: P. falciparum Dd2 growth inhibitors, dose response, SYBR Green, cherry-picked samples (AID 1159567). The class given is functional, cell-based.
Assay [5] is described as follows: growth inhibition of PfATP4-mutant resistant parasites – NITD609-resistant line, SYBR Green, dry powder, dose response (AID 1159571).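 Note: parasites synchronized at ring stage by sorbitol before testing.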 It counts as functional, cell-based.
Assay [6] can be described thus: growth inhibition of yeast DHODH-expressing 3D7 parasites – SYBR Green, dry powder samples, dose response (AID 1159570).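 Note: parasite growth measured after 72 hours of compound exposure.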 The class given is functional, cell-based.
Assay [7] can be described thus: toxicity to human HepG2 hepatoma cells – cell-based, plate reader, dry powder samples, cytotoxicity control, dose response (AID 1159569).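 Note: inhibitor potency with signal falling toward the positive control level.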 It counts as functional.
A short description of assay [8]: Dd2 malaria parasite growth inhibition potency – SYBR Green, dry powder samples, dose response (AID 1159566).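 Note: potency for growth inhibition with lower SYBR green DNA signal.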 It counts as functional, cell-based.

Chain of Induced myeloid leukemia cell differentiation protein Mcl-1 (Q07820 whole entry): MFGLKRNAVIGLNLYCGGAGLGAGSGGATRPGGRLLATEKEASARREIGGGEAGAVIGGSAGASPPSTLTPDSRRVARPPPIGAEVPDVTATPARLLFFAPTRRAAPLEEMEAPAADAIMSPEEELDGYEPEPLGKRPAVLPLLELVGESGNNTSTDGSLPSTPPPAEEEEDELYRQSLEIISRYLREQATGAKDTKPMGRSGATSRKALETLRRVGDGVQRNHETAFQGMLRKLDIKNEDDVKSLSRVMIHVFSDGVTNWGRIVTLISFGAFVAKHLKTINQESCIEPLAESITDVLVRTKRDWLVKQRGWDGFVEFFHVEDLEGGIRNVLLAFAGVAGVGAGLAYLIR

Take `O=C(CN1C(=O)C2CC=CCC2C1=O)NCC1COc2ccccc2O1` (stereo not given): the IC50 (in general, the point on the concentration scale where inhibition reaches its midpoint) at Leucine aminopeptidase was 8660 nM (active).

`Cc1cc(O)nc(SCC(=O)Nc2cccc3ccccc23)c1C#N`: the IC50 on Leucine aminopeptidase was 2200 nM (active).

Turning to `C=CCc1c(C)nc(SC)nc1Nc1ccc(C(C)=O)cc1`, the CC50 in assay [1] is > 40000 nM (active).

Regarding `CCN(c1cccc(C)c1)S(=O)(=O)c1ccc2[nH]c(=O)c(=O)[nH]c2c1`, on Leucine aminopeptidase, the IC50 was 1620 nM (active).

In the case of `O=C1Oc2ccccc2C(=O)/C1=C/c1c[nH]c2ccccc12`, in assay [2], the IC50 is 5560 nM (active). Moreover, in assay [1], the CC50 was 30900 nM (active).

With `CCN1CCC(CNCc2cn(-c3ccc(OC)cc3)nc2-c2ccccc2Cl)C1` (stereo not given), in assay [3], the AC50 (usually the concentration at which the activity in the assay is half-maximal) was > 20000 nM (inactive).

Consider `CCCN(CCC)CCCNC(=O)c1cn(CC)c2ccc(S(=O)(=O)N3CCc4ccccc4C3)cc2c1=O`, for which the AC50 in [3] is > 20000 nM (inactive).

Consider `CCCCN1C(=O)NC(=O)/C(=C/c2ccc[nH]2)C1=O`, for which the 50% inhibitory concentration (IC50) in the assay “cells” is 1460 nM (active). For the same compound, the CC50 in [1] is > 40000 nM (active).

As for `C[C@@H]1CN([C@@H](C)CO)C(=O)c2c(c3ccccc3n2C)-c2ccccc2CO[C@@H]1CN(C)C(=O)c1cc(Cl)cc(Cl)c1`, the AC50 in assay [4] was 2110 nM (active); in assay [5], 1500 nM (active); in assay [6] it was 2020 nM (active); in assay [7], 22400 nM (active); in assay [8], 1880 nM (active).

`COc1ccc2c3c(n(C)c2c1)[C@@H](CO)NCC31CCN(Cc2ccc(-c3ccccn3)cc2)CC1`: the AC50 in assay [4] is 696 nM (active); in [5] it was 560 nM (active); in assay [6], 447 nM (active); in assay [7], 19400 nM (active); in assay [8], 440 nM (active).

As for `C[C@@H]1CN([C@@H](C)CO)C(=O)c2c(c3ccccc3n2C)-c2ccccc2CO[C@@H]1CN(C)Cc1ccc(Oc2ccccc2)cc1`, the concentration at half-maximal activity (AC50) in assay [4] is 1300 nM (active); in assay [5], 906 nM (active); in assay [6] it was 3440 nM (active); in assay [7], 22800 nM (active); in [8], 590 nM (active).

With `O=C(Nc1ccc(-c2ccccc2)cc1)[C@H]1[C@H](CO)[C@H]2Cn3c(cccc3=O)[C@@H]1N2Cc1ccccc1`, the AC50 in [4] was 1440 nM (active); in assay [5] it was 921 nM (active); in assay [6], 1240 nM (active); in assay [7], 48400 nM (active); in [8], 1030 nM (active).

As for `C[C@@H]1CN([C@H](C)CO)C(=O)c2ccccc2-c2ccccc2CO[C@H]1CN(C)C(=O)Nc1cccc(C(F)(F)F)c1`, the AC50 in assay [4] is 1450 nM (active); in assay [5], 3230 nM (active); in assay [6], 1190 nM (active); in assay [7] it was 86300 nM (active); in assay [8], 1030 nM (active).
